Reference: patent publication US20210137938A1, “NUPR1 INHIBITION FOR TREATING CANCER” (INSTITUT NATIONAL DE SANTE ET DE LA RECHERCHE MEDICALE …, priority 2018, published 2021)

How the values were obtained:
[1] = test system: 02.063, LIPC, Foie8b and HN14 cells; assay: Chemosensitivity / PrestoBlue cell viability, four primary pancreatic cancer-derived cells; format: cell-based, human; settings: 72 h, 0 to 100 μM, FIG. 1
Method: The biological effect in vitro of the compounds A, B and C were then studied on four well characterized primary pancreatic cancer-derived cells 02.063 and LIPC (Basal subtype), Foie8b (derived from a liver metastasis) and HN14 (Classical subtype).
(§1) The cells were screened for chemosensitivity to these compounds for 72 h with increasing concentrations of the compounds ranging from 0 to 100 μM in 96-well plates. Trifluoperazine was used as the reference compound. Each experiment was performed in triplicate and repeated at least three times. Cell viability was estimated after addition of the PrestoBlue cell viability reagent (Life Technologies) for 3 h.

NUPR1 [2] = target: T1, NUPR1 (Homo sapiens, UniProt O60356); assay: Isothermal titration calorimetry of NUPR1-compound interaction; settings: ITC, 25° C, sodium phosphate 20 mM pH 7.0, 1% DMSO, single binding site model; read-out: dissociation constant (Kd)
T1 sequence (O60356 1-82): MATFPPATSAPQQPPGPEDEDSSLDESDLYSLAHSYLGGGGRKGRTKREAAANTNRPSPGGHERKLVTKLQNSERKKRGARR
Method: (c) ITC studies: Target engagement for the different compounds was assessed by isothermal titration calorimetry (the gold standard technique in binding affinity determination), which allowed the thermodynamic characterization of the NUPR1-compound interaction.
Titrations were performed in an AutoiTC200 (MicroCal, Malvern Instruments). A solution of NUPR1 (20 μM, in sodium phosphate 20 mM pH 7.0, 1% DMSO) in the calorimetric cell was titrated with a solution of corresponding compound (200 μM, in sodium phosphate 20 mM pH 7.0, 1% DMSO) located in the injecting syringe.
Because compounds were initially dissolved as concentrated (˜10 mM) stock solutions in pure DMSO, a residual percentage of DMSO was present in the final solutions. […] A standard protocol was employed: 19 titrant injections with 2 μL were programmed with a spacing of 150s, a stirring speed of 750 rpm, and a reference power of 10 μcal/s. From the thermogram (thermal power as a function of time), the binding isotherm (ligand-normalized heats as a function of the molar ratio) was obtained through integration of the individual heat effect associated with each ligand injection. Non-linear least squares regression analysis employing a model considering a single binding site in NUPR1 allowed the estimation of the binding parameters: dissociation constant, biding enthalpy, and stoichiometry.

[3] = test system: HEPG2 (Hepatocellular carcinoma); assay: PrestoBlue cell viability, HEPG2; format: cell-based
Method: as §1
(§2) The effect of compound C was also evaluated by treating cellular lines derived from different tumors with increasing concentrations of this compound. The protocol applied is the same as the one mentioned above for cell lines 02-063, HN14, LIPC and Foie8b.

02.063 cells xenograft = assay: Mice xenografted with 02.063 cells, tumor volume; format: in vivo, NMRI-Nude mice
Method: FIG. 2: Variation of the size the tumor of mice xenografted with 02.063 cells in the absence of any treatment (control—administration of a volume of vehicle solution equivalent to the volume of treatment administered to the treated mice) or treated with compound C of the invention (daily treatment of 30 days with 5 mg/kg of this compound). Day 0 on this figure corresponds to the day when the tumors reached 200 mm^3 (so around 1 week after the injection of 15×10^6 cells).
02.063 cells were inoculated subcutaneously (15×10^6 cells) in NMRI-Nude 8-week old mice. When tumors reached 200 mm^3, (around 1 week after the injection), a daily treatment was started for 30 days with 5 mg/kg of the compound C and the control group receiving an equivalent volume of vehicle solution (6 mice in control group, 6 mice treated with compound C).

[4] = Neurological effect on treated mice; format: in vivo
Method: Accordingly, Trifluoperazine seemed an interesting compound as anti-cancer agent. However, as indicated in the examples of the present application, increasingly high doses of Trifluoperazine tested in vivo led to neurological effects on immunodeficient mice implanted with human pancreatic cancer cells-derived xenografts.
A similar experiment was performed with Trifluoperazine (data not shown). […] Although relatively efficient as an anticancer agent, the neurological effect found in mice left Trifluoperazine unusable in clinics.

[5] = test system: MiaPaCa-2, ANOR, AOIPC, 02-136, 01-046, NH01, LIPC, HN14, 01-008 and Foie8b cells; assay: Chemosensitivity / PrestoBlue cell viability, ten primary pancreatic cancer-derived cells; format: cell-based; settings: 72 h, 0 to 100 μM, FIG. 4
Source text: The biological effect in vitro of the compounds C, I, F, K, L, M, N, D, G and J were studied on ten well characterized primary pancreatic cancer-derived cells: MiaPaCa-2 (Classical subtype), ANOR (Classical subtype), AOIPC (Basal subtype), 02-136 (Basal subtype), 01-046 (Classical subtype), NH01 (Classical subtype), LIPC (Basal subtype), HN14 (Classical subtype), 01-008 (Basal subtype) and Foie8b (derived from a liver metastasis).
The protocol applies was identical to the one previously indicated, i.e.:
as §1, with “plates.” for “plates. Trifluoperazine was used as the reference compound.”

[6] = test system: MDA-MB-231 (Breast cancer); assay: PrestoBlue cell viability, MDA-MB-231; format: cell-based; settings: Homo sapiens, MDA-MB-231, 72 h
Method: as §1, §2

NUPR1 [7] = target: T1, NUPR1; settings: Neira et al., 2017; cited from earlier work
[8] = 5 mg/kg daily for 30 days, from tumors of 200 mm^3, FIG. 2

CCN1CCN(CCCN2c3ccccc3Sc3ccc(C(F)(F)F)cc32)CC1 [Compound A]
cell death induced / efficiency to kill pancreatic cancer cells, compared with Trifluoperazine [1]: close to that induced by Trifluoperazine
Kd (NUPR1 [2]): 11 µM

CN(C)CCN1CCN(CCCN2c3ccccc3Sc3ccc(C(F)(F)F)cc32)CC1 [Compound C]
IC50 ([3]; HEPG2, 72 h): 0.254 µM
IC50 ([3]; Homo sapiens, HepG2, 72 h): 0.25 µM
size of the tumors (02.063 cells xenograft; [8]): decreased progressively to almost disappear after 20 days of treatment
tumor growth (02.063 cells xenograft; [8]): stopped the growth almost immediately
cell death induced / efficiency to kill pancreatic cancer cells, compared with Trifluoperazine [1]: most efficient compound to kill the pancreatic cancer cells
efficiency relative to Trifluoperazine (times more efficient) [1]: around 10 times
neurological effect ([4]; treatment of xenografted mice, including chronic treatment with 10 mg/kg): did not show any appreciable neurological effect
induction of cell death in the different cancer cell lines [5]: particularly efficient (low IC50)
IC50 [6]: 14.1 µM
Kd (NUPR1 [2]): 2.1 µM

CN1CCN(CCCN2c3ccccc3Sc3ccc(C(F)(F)F)cc32)CC1 [Trifluoperazine, reference compound]
tumor growth (02.063 cells xenograft; higher dose, data not shown): rapidly, and almost completely, stopped
tumor volume increase compared to the control (02.063 cells xenograft; lowest dose, same period, data not shown): 50%
dissociation constant between NUPR1 and Trifluoperazine (NUPR1 [7]): low micromolar range
neurological effect ([4]; increasingly high doses, xenografted immunodeficient mice): neurological effect on treated mice such has lethargy

CCN1CCN(CCCN2c3ccccc3Sc3ccc(C(F)(F)F)cc32)CC1 [Compound B]
Kd (NUPR1 [2]): 7.1 µM
